Bridge positions count the residues as written; N and C are the ends. Peptide text beside a SMILES is read from it.
How the values were obtained:
DPP4 = test: Chemical stability of the compound assessed as half life up to 24 hrs by HPLC analysis in presence of human recombinant DPP4; format: physicochemical
[1] = molecular target: T1, Glucagon-like peptide 1 receptor (Homo sapiens, UniProt P43220); test: Activation of human GLP1 receptor expressed in HEK293 cells assessed as increase in cAMP accumulation relative to GLP1; format: functional, cell-based
T1 sequence (P43220 whole entry): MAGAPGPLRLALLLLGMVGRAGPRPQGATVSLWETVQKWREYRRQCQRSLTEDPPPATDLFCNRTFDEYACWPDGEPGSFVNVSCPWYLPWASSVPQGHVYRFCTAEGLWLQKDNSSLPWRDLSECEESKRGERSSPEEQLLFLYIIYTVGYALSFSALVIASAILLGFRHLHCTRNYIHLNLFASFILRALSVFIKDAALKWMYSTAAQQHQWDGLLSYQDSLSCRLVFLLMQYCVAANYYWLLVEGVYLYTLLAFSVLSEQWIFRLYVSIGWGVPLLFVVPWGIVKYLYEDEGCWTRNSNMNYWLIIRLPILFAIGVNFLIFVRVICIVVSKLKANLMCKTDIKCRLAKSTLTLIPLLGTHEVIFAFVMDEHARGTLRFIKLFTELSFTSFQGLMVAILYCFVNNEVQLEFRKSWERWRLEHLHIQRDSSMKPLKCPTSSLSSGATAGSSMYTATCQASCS

NEP 24.11 = test: Chemical stability of the compound assessed as half life up to 24 hrs by HPLC analysis in presence of human recombinant NEP 24.11; format: physicochemical
[2] = molecular target: T1, Glucagon-like peptide 1 receptor; test: Activation of human GLP1 receptor expressed in HEK293 cells assessed as increase in cAMP accumulation; format: functional, cell-based; details: read-out: EC50

## CC[C@H](C)[C@H](NC(=O)[C@H](Cc1ccccc1)NC(=O)[C@H](CCC(=O)O)NC(=O)[C@@H]1CCCCNC(=O)CC[C@H](NC(=O)[C@H](CCC(=O)O)NC(=O)[C@H](CC(C)C)NC(=O)[C@H](Cc2ccc(O)cc2)NC(=O)[C@H](CO)NC(=O)[C@H](CO)NC(=O)[C@@H](NC(=O)[C@H](CC(=O)O)NC(=O)[C@H](CO)NC(=O)[C@@H](NC(=O)[C@H](Cc2ccccc2)NC(=O)[C@@H](NC(=O)CNC(=O)[C@H](CCC(=O)O)NC(=O)[C@H](C)NC(=O)[C@@H](N)Cc2cnc[nH]2)[C@@H](C)O)[C@@H](C)O)C(C)C)C(=O)N[C@@H](CCC(N)=O)C(=O)N[C@@H](C)C(=O)N[C@@H](C)C(=O)N1)C(=O)N[C@H]1CCC(=O)NCCCC[C@@H](C(=O)NCC(=O)N[C@@H](CCCNC(=N)N)C(N)=O)NC(=O)[C@H](C(C)C)NC(=O)[C@H](CC(C)C)NC(=O)[C@H](Cc2c[nH]c3ccccc23)NC1=O (H-HAEGTFTSDVSSYLEEQAAKEFIEWLVKGR-NH2; lactam 16-20, 24-28)
DPP4
  half-life: 6 h
[1]
  Activity: 290%
NEP 24.11
  half-life: 3.5 h
[2]
  EC50: 1.6 nM

## CC[C@H](C)[C@H](NC(=O)[C@H](Cc1ccccc1)NC(=O)[C@H](CCC(=O)O)NC(=O)[C@@H]1CCC(=O)NCCCC[C@H](NC(=O)[C@H](CCC(=O)O)NC(=O)[C@H](CC(C)C)NC(=O)[C@H](Cc2ccc(O)cc2)NC(=O)[C@H](CO)NC(=O)[C@H](CO)NC(=O)[C@@H](NC(=O)[C@H](CC(=O)O)NC(=O)[C@H](CO)NC(=O)[C@@H](NC(=O)[C@H](Cc2ccccc2)NC(=O)[C@@H](NC(=O)CNC(=O)[C@H](CCC(=O)O)NC(=O)[C@H](C)NC(=O)[C@@H](N)Cc2cnc[nH]2)[C@@H](C)O)[C@@H](C)O)C(C)C)C(=O)N[C@@H](CCC(N)=O)C(=O)N[C@@H](C)C(=O)N[C@@H](C)C(=O)N1)C(=O)N[C@H]1CCCCNC(=O)CC[C@@H](C(=O)NCC(=O)N[C@@H](CCCNC(=N)N)C(N)=O)NC(=O)[C@H](C(C)C)NC(=O)[C@H](CC(C)C)NC(=O)[C@H](Cc2c[nH]c3ccccc23)NC1=O (H-HAEGTFTSDVSSYLEKQAAEEFIKWLVEGR-NH2; lactam 16-20, 24-28)
DPP4
  half-life: 7.3 h
[1]
  Activity: 210%
NEP 24.11
  half-life: 1.2 h
[2]
  EC50: 2.2 nM

Reference: ChEMBL document CHEMBL1240496, “Development of potent glucagon-like peptide-1 agonists with high enzyme stability via introduction of multiple lactam bridges” (J Med Chem, 2010)
